From patent US5620676A, “Biologically active ATP analogs” (priority 1995, dated 1997)
“And” between values parts separate entries of the source, which are not always exact repeats. Identical values can stand only once. Like-named read-outs stand apart in the source and are kept apart here. One block for each compound: values may come before it.

Tests used:
[1] = biological target: T1, P2X receptor (vas deferens) (Cavia porcellus, UniProt A0A286XVA9); assay: Contraction of guinea pig isolated vas deferens
T1 sequence (A0A286XVA9 1-399): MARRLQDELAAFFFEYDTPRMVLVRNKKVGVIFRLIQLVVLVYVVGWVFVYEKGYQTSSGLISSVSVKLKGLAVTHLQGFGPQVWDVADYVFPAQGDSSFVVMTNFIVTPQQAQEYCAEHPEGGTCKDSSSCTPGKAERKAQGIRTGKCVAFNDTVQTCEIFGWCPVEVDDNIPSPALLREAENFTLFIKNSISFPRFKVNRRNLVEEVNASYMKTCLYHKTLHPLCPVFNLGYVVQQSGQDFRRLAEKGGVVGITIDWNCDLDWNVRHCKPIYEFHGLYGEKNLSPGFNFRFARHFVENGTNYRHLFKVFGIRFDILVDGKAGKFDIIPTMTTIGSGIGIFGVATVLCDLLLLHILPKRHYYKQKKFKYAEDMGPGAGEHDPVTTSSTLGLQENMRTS

[2] = biological target: T2, P2Y receptor (turkey erythrocyte membranes) (Meleagris gallopavo, UniProt P49652); assay: Stimulation of phospholipase C (inositol phosphate formation) in turkey erythrocyte membranes; format: biochemical
T2 construct: from tissue; host or cells: washed turkey erythrocytes, ghosts prepared by hypotonic lysis
In short: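 Erythrocytes were labelled 18-24 h at 37 °C with [3H]myoinositol, and ghosts were made by hypotonic lysis. Ghosts (≈175 μg protein) were incubated 5 min at 30 °C in Hepes buffer pH 7.0 with 1 μM GTPγS and nucleotide analogs. Total [3H]inositol phosphates were purified by anion exchange; K0.5 averaged from 3-8 dose-response curves.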

[3] = system: P2X and P2Y receptors; assay: Overall activity in the seven P2X and P2Y preparations
[4] = biological target: T3, P2X receptor (urinary bladder) (Cavia porcellus, UniProt A0A286XVA9); assay: Contraction of guinea pig isolated urinary bladder detrussor muscle; conditions: guinea pig urinary bladder
T3 construct: guinea pig isolated urinary bladder detrussor muscle; from tissue; host or cells: guinea pig isolated urinary bladder detrusor muscle

[5] = biological target: T4, adenylyl cyclase linked P2Y receptor (C6 rat glioma cells) (Rattus norvegicus, UniProt Q9EPX4); assay: Inhibition of adenylyl cyclase in C6 rat glioma cells; format: cell-based; conditions: for IC50: C6 rat glioma cells, 10 μM isoproterenol, read-out: K0.5 values (in nM) for inhibition of adenylyl cyclase in C6 cells; for selectivity for the adenylyl cyclase linked (C6 cell) receptor: versus phospholipase C linked turkey erythrocyte receptor
T4 construct: endogenous in cells; host or cells: C6 rat glioma cells
Method: This example illustrates the inhibition of adenylyl cyclase activity in C6 rat glioma cells, as a function of the presence of certain ATP analogs in the medium in which the C6 cells were cultured.
Cells were labelled by incubation for 2 hours in the presence of 1 to 2 mCi of tritiated adenine/ml in the medium. Cells were washed twice with HEPES (20 mM, pH 7.5)-buffered Eagle's medium and then preincubated for 10 minutes at 37° C. with fresh medium containing 200 μM 3-isobutyl-1-methylxanthine. Agonist incubations were initiated by the simultaneous addition of 10 μM isoproterenol and various concentrations of nucleotides. The reactions were stopped after 10 minutes of aspiration of the nucleotide-containing medium and addition of 1 ml of ice-cold 5% trichloroacetic acid.

[6] = biological target: T5, P2Y receptor (taenia coli) (Cavia porcellus, UniProt P59902); assay: Relaxation of carbachol-contracted guinea pig taenia coli; conditions: for activity/potency in words, taenia coli: guinea pig taenia coli
T5 construct: Relaxant responses mediated via P2Y receptors were examined in guinea pig taenia coli; from tissue; host or cells: guinea pig taenia coli (carbachol-contracted)
From the text: (§1) Muscular relaxation/contraction: Relaxant responses mediated via P2Y receptors were examined in guinea pig taenia coli, rabbit aorta, and rabbit mesenteric artery, as described by Hoyle et al. (Br. J. Pharmacol., 107, 367-374 (1992a)), Burnstock et al., (Br. J. Pharmacol., 90, 383-391 (1987a)), and Rubino et al., (Eur. J. Pharmacol., 212, 237-240 (1992)). Contractile responses mediated via P2X receptors were examined in the guinea pig urinary bladder and vas deferens, and rabbit saphenous artery, also using standard methods (see Hoyle et al., supra., 1992; Hoyle et al., Br. J. Pharmacol., 99, 617-621 (1990); and Burnstock et al., Br. J. Pharmacol., 90, 111-120 (1987b)).
Muscular relaxation assays were performed as recited in Example 3. […] All curves are the mean of two determinations except for 5'-ATP (n=38), 2-hexylthio-ATP (n=4), 2-(5-hexenyl)thio-ATP (n=3), and 2-(2-4-nitrophenylethyl)thio-AMP (n=5). […] The pD2 value for 2-methylthio-ATP is 8.0±0.15, as reported by Hoyle et al., in Receptor Data for Biological Experiments, (H. N. Doods and J. C. A. Van Meel, eds., 1992b) at pp. 54-61.
Phospholipase C activity and muscle relaxation/contraction effects were assessed using the methods recited in Example 3. In FIGS. 10-12, which present the result of assays of phospholipase C activity in turkey erythrocyte membranes, the x-axis is marked in units of the log of the molar concentration of the putative P2Y receptor agonist tested and the y-axis is marked in units of the percentage of maximum production of [^3 H]-inositol phosphate generated. In FIG. 13, the x-axis is marked in units of the negative log of the molar concentration of applied putative P2Y receptor agonists and the y-axis is marked in units of the percentage relaxation of the 50 nM carbachol-induced contraction of guinea pig taenia coli. In FIG. 14, the x-axis is also marked in units of the negative log of the molar concentration of applied putative P2Y receptor agonists and the y-axis is marked in units of the percentage relaxation of the 1 μM noradrenalin-induced contraction of rabbit aorta endothelium. In FIGS. 15-16, the x-axis is marked in units of the negative log of the molar concentration of applied putative p^2X receptor agonists and the y-axis is marked in units of the percentage contraction relative to a standard dose of KCl (i.e., 60 mM), as assessed in guinea pig isolated urinary bladder detrussor muscle (FIG. 15) and guinea pig isolated vas deferens (FIG. 16).

[7] = biological target: P2Y receptor (mesenteric artery); assay: Relaxation of rabbit mesenteric artery; conditions: log molar units
[8] = system: P2Y receptor (aorta endothelium); assay: Relaxation of noradrenalin-contracted rabbit aorta; conditions: rabbit aorta; log molar units
[9] = biological target: T6, P2X receptor (saphenous artery) (Oryctolagus cuniculus, UniProt G1U3D6); assay: Contraction of rabbit saphenous artery; conditions: rabbit saphenous artery; 10 μM; read-out: response at 10 μM relative to the contraction produced by 1 μM α,MeATP, saph. artery
T6 construct: and rabbit saphenous artery; from tissue; host or cells: rabbit saphenous artery
T6 sequence (G1U3D6 1-399): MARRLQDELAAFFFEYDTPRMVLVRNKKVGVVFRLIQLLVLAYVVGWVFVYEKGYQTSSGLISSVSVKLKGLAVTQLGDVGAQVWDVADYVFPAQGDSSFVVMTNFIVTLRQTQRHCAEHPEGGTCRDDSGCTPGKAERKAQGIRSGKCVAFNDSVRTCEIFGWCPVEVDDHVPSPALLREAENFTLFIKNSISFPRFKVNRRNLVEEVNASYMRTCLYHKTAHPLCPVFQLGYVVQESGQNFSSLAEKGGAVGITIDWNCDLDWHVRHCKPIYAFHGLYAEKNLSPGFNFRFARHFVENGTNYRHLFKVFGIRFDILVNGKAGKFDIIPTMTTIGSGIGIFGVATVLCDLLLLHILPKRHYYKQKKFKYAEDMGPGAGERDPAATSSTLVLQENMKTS
From the text: as §1
^c For the saphenous artery, the percentages in brackets are response
at 10 μM relative to the contraction produced by 1 μM α,MeATP
ATP in this assay is very weak (EC50 =
1.78 mM). The highest concentrations of the analogues tested were 3-30

[10] = turkey erythrocyte membranes, mean ± S.E.M. for at least 2 determinations, read-out: phosphatidyl inositol metabolism (K0.5, nM) erythrocyte
[11] = turkey erythrocyte membranes, read-out: K0.5

T2 sequence (P49652 whole entry): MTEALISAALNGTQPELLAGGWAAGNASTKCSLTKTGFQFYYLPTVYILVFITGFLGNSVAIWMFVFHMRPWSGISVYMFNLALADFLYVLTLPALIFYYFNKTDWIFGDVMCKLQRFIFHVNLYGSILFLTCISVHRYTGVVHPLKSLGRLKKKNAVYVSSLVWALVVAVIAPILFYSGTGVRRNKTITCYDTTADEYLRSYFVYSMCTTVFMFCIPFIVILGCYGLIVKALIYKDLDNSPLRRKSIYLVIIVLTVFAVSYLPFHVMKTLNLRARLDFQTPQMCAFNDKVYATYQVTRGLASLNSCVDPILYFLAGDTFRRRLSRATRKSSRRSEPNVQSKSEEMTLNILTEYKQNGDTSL
T4 sequence (Q9EPX4 whole entry): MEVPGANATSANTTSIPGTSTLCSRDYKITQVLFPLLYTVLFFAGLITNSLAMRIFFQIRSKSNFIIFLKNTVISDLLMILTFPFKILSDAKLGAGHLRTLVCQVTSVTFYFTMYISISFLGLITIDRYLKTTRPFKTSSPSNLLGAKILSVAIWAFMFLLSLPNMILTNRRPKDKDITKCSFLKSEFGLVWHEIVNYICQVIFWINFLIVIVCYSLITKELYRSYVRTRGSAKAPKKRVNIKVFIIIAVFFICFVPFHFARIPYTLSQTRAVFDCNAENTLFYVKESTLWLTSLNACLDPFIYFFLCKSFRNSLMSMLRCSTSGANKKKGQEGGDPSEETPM
T5 sequence (P59902 whole entry): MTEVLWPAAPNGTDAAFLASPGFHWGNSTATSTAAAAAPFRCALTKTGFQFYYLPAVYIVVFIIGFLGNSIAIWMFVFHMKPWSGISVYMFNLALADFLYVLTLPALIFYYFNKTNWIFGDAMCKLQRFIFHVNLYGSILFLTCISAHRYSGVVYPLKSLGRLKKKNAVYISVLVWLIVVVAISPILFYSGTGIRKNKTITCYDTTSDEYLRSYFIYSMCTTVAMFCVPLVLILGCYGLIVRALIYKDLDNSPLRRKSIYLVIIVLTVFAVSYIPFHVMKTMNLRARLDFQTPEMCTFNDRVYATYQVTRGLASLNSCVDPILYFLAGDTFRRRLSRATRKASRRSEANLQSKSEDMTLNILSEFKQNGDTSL

activity/potency in words, vas deferens [1]: inactive in the vas deferens
EC50 [2, 10]: > 100000 nM
activity/potency in words, bladder [4]: limited activity in the urinary bladder
Compound: O=P(O)(O)OP(=O)(O)OP(=O)(O)OC[C@H]1O[C@@H](n2cnc3c2ncn2ccnc32)[C@H](O)[C@@H]1O [N1,N^6 -etheno-ATP, reference compound]
overall activity in words, all preparations [3]: greatly reduce or abolish activity within most P2X and P2Y preparations

Compound: C=CCCCCSc1nc(N)c2ncn([C@@H]3O[C@H](COP(=O)(O)OP(=O)(O)OP(=O)(O)O)[C@@H](O)[C@H]3O)c2n1 [2-(S-Hexenyl)thio-ATP, 2-(5-hexenylthio)adenosine 5'-triphosphate]
IC50 [5]: 0.12 ± 0.06 nM
activity/potency in words, turkey erythrocyte ([2]; turkey erythrocyte membranes): at least two orders of magnitude more potent
EC50 [2, 10]: 10 ± 4 nM
EC50 [2, 11]: 5 to 30 nM and 10 nM
EC50 [6]: 12.6 nM
activity/potency in words, taenia coli [6]: significantly more potent than ATP itself, at least by one order of magnitude
relaxation pD2, mes. artery [7]: 7.0

Compound: CCCCCCSc1nc(N)c2ncn([C@@H]3O[C@H](COP(=O)(O)OP(=O)(O)OP(=O)(O)O)[C@@H](O)[C@H]3O)c2n1 [2-Hexylthio-ATP, 2-hexylthio-ATP]
IC50 [5]: 0.03 ± 0.005 nM
selectivity for the adenylyl cyclase linked (C6 cell) receptor [5]: 170 -fold
relaxation pD2, aorta [8]: 6.7
activity/potency in words, turkey erythrocyte ([2]; turkey erythrocyte membranes): at least two orders of magnitude more potent
EC50 [2, 10]: 5 ± 1 nM
EC50 [2, 11]: 5 to 30 nM
EC50 [6]: 31.6 nM
activity/potency in words, taenia coli [6]: significantly more potent than ATP itself, at least by one order of magnitude
relaxation pD2, mes. artery [7]: 6.7

Compound: Nc1ncnc2c1ncn2[C@@H]1O[C@H](COP(=O)(O)OP(=O)(O)O)[C@@H](O)[C@H]1O [ADP, adenosine 5'-diphosphate, reference compound]
selectivity for the adenylyl cyclase linked (C6 cell) receptor [5]: 120 -fold
relaxation pD2, aorta [8]: 5.2
activity/potency in words, vas deferens [1]: less potent than ATP
EC50 ([2]; K0.5, turkey erythrocyte membranes, read from graph): 3160 nM
fold less potent than ATP, turkey erythrocyte ([2]; relative to ATP): 3 -fold
EC50 [2, 10]: 8000 ± 2000 nM
activity/potency in words, taenia coli [6]: equipotent to ATP
activity/potency in words, bladder [4]: equipotent with ATP
relaxation pD2, mes. artery [7]: 5.2

Compound: Nc1ncnc2c1ncn2[C@@H]1O[C@@H]2COP(=O)(OP(=O)(O)CP(=O)(O)O)O[C@H]2[C@H]1O (stereo partly drawn) [3',5'-Cyclic-β,γ-methylene adenosine 5'-triphosphate]
EC50 ([2]; at 10^-5 M, read-out: phosphatidyl inositol metabolism (K0.5) erythrocyte, class symbol): > 10000 nM
overall activity in words, all preparations ([3]; listed as Cyclized β,γ-methylene ATP): without effect in all seven types of preparation tested
overall activity in words, all preparations ([3]; listed as β,γ-methylene-adenosine-3',5'-cyclic triphosphate): greatly reduce or abolish activity within most P2X and P2Y preparations

Compound: C=CCCCCSc1nc(N)c2ncn([C@@H]3O[C@H](COP(=O)(O)O)[C@@H](O)[C@H]3O)c2n1 [2-(5-Hexenyl)thio-AMP, 2-(5-hexenylthio)adenosine 5'-monophosphate]
IC50 [5]: 2 ± 0.18 nM
relaxation pD2, aorta [8]: 7.0
fold less potent than the corresponding triphosphate, turkey erythrocyte ([2]; relative to corresponding triphosphate): 33 -fold
EC50 [2, 10]: 328 ± 43 nM
EC50 [6]: 1000 nM
relaxation pD2, mes. artery [7]: 6.3

Compound: Nc1nc(SCCc2ccc([N+](=O)[O-])cc2)nc2c1ncn2[C@@H]1O[C@H](COP(=O)(O)OP(=O)(O)OP(=O)(O)O)[C@@H](O)[C@H]1O [2-(2-p-Nitrophenylethyl)-thio-ATP, 2[2-(p-Nitrophen)ethylthio]adenosine 5'-triphosphate]
IC50 [5]: 1 ± 0.4 nM
selectivity for the adenylyl cyclase linked receptor, in words ([5]; versus phospholipase C linked receptor): only moderate selectivity for C6 cell receptors
relaxation pD2, aorta [8]: 6.2
activation at 10 µM [9]: 2.6%
activity/potency in words, turkey erythrocyte ([2]; turkey erythrocyte membranes): at least two orders of magnitude more potent
EC50 [2, 10]: 12 ± 4 nM
EC50 [2, 11]: 5 to 30 nM
EC50 [6]: 31.6 nM
relaxation pD2, mes. artery [7]: 7.0
